Results from patent US12435044B2, “Pyridazinone herbicides and pyridazinone intermediates used to prepare a herbicide” (FMC Corporation, priority 2018, dated 2025).

Key:
Experiment in all cases: Test C pre-/postemergence greenhouse test
Type in all cases: in vivo
Details in all cases: scale 0 to 100
[1] = system: barnyardgrass (Echinochloa crus-galli)
Excerpt: (§1) Seeds of plant species selected from blackgrass (Alopecurus myosuroides), ryegrass, Italian (Lolium multiflorum), wheat, winter (winter wheat, Triticum aestivum), galium (catchweed bedstraw, Galium aparine), corn (Zea mays), crabgrass, large (Digitaria sanguinalis), foxtail, giant (Setaria faberii), johnsongrass (Sorghum halepense), lambsquarters (Chenopodium album), morningglory (Ipomoea coccinea), nutsedge, yellow (Cyperus esculentus), pigweed (Amaranthus retroflexus), ragweed (common ragweed, Ambrosia elatior), soybean (Glycine max), barnyardgrass (Echinochloa crus-galli), oilseed rape (Brassica napus), waterhemp (common waterhemp, Amaranthus rudis), pigweed, palmer (Amaranthus palmeri), kochia (Kochia scoparia), oat, wild (Avena fatua), surinam grass (Brachiaria decumbens), windgrass (Apera spica-venti), poinsettia, wild (Euphorbia heterophylla) and velvetleaf (Abutilon theophrasti) were planted into a silt loam soil and treated preemergence with test chemicals formulated in a non-phytotoxic solvent mixture which included a surfactant.
(§2) At the same time, plants selected from these crop and weed species and also chickweed (common chickweed, Stellaria media), buckwheat, wild (Polygonum convolvulus), mustard, wild (Sinapis arvensis), field poppy (Papaver rhoeas), field violet (Viola arvensis), nightshade (eastern black nightshade, Solanum ptycanthum), speedwell (bird's-eye speedwell, Veronica persica), horseweed (Conyza canadensis), cutleaf geranium (Geranium dissectum), and Canada thistle (Cirsium arvense) were planted in pots containing Redi-Earth® planting medium (Scotts Company, 14111 Scottslawn Road, Marysville, Ohio 43041) comprising spaghnum peat moss, vermiculite, wetting agent and starter nutrients and treated with postemergence applications of test chemicals formulated in the same manner. Plants ranged in height from 2 to 18 cm (1- to 4-leaf stage) for postemergence treatments. Treated plants and controls were maintained in a greenhouse for 13 to 21 d, after which time all species were compared to controls and visually evaluated. Plant response ratings, summarized in Table C-1 (postemergence) and C-2 (preemergence), are based on a scale of 0 to 100 where 0 is no effect and 100 is complete control. A dash (-) response means no test result.

[2] = system: corn (Zea mays)
Excerpt: as §1, §2

[3] = system: crabgrass, large (Digitaria sanguinalis)
Excerpt: as §1, §2

[4] = system: johnsongrass (Sorghum halepense)
Excerpt: as §1, §2

[5] = system: nutsedge, yellow (Cyperus esculentus)
Excerpt: as §1, §2

[6] = system: oilseed rape (Brassica napus)
Excerpt: as §1, §2

[7] = system: poinsettia, wild (Euphorbia heterophylla)
Excerpt: as §1, §2

[8] = system: ragweed (common ragweed, Ambrosia elatior)
Excerpt: as §1, §2

[9] = system: ryegrass, Italian (Lolium multiflorum)
Excerpt: as §1, §2

[10] = system: surinam grass (Brachiaria decumbens)
Excerpt: as §1, §2

[11] = system: velvetleaf (Abutilon theophrasti)
Excerpt: as §1, §2

[12] = system: wheat, winter (winter wheat, Triticum aestivum)
Excerpt: as §1, §2

[13] = system: windgrass (Apera spica-venti)
Excerpt: as §1, §2

For `Cc1ccc2ccc(Cl)cc2c1-c1c(O)c(Cl)nn(C)c1=O` [Cpd. No. 22], the “Plant response rating, Barnyardgrass” value ([1]; Postemergence, 16 g ai/ha) was 85, the “Plant response rating, Barnyardgrass” value ([1]; Postemergence, 31 g ai/ha) was 90 and the “Plant response rating, Barnyardgrass” value ([1]; Postemergence, 62 g ai/ha) was 95. For the same compound, the “Plant response rating, Barnyardgrass” value ([1]; Postemergence, 125 g ai/ha) was 95, the “Plant response rating, Barnyardgrass” value ([1]; Preemergence, 31 g ai/ha) was 65 and the “Plant response rating, Barnyardgrass” value ([1]; Preemergence, 61 g ai/ha) was 5. For the same compound, the “Plant response rating, Barnyardgrass” value ([1]; Preemergence, 62 g ai/ha) was 85, the “Plant response rating, Barnyardgrass” value ([1]; Preemergence, 125 g ai/ha) was 100 and the “Plant response rating, Corn” value ([2]; Postemergence, 16 g ai/ha) was 0. For the same compound, the “Plant response rating, Corn” value ([2]; Postemergence, 31 g ai/ha) was 20, the “Plant response rating, Corn” value ([2]; Postemergence, 62 g ai/ha) was 35 and the “Plant response rating, Corn” value ([2]; Postemergence, 125 g ai/ha) was 25. For the same compound, the “Plant response rating, Corn” value ([2]; Preemergence, 31 g ai/ha) was 10, the “Plant response rating, Corn” value ([2]; Preemergence, 61 g ai/ha) was 5 and the “Plant response rating, Corn” value ([2]; Preemergence, 62 g ai/ha) was 5. The “Plant response rating, Corn” value ([2]; Preemergence, 125 g ai/ha) was 30, the “Plant response rating, Crabgrass, Large” value ([3]; Postemergence, 16 g ai/ha) was 10 and the “Plant response rating, Crabgrass, Large” value ([3]; Postemergence, 31 g ai/ha) was 25. For the same compound, the “Plant response rating, Crabgrass, Large” value ([3]; Postemergence, 62 g ai/ha) was 15, the “Plant response rating, Crabgrass, Large” value ([3]; Postemergence, 125 g ai/ha) was 60 and the “Plant response rating, Crabgrass, Large” value ([3]; Preemergence, 31 g ai/ha) was 25. The “Plant response rating, Crabgrass, Large” value ([3]; Preemergence, 61 g ai/ha) was 5, the “Plant response rating, Crabgrass, Large” value ([3]; Preemergence, 62 g ai/ha) was 75 and the “Plant response rating, Crabgrass, Large” value ([3]; Preemergence, 125 g ai/ha) was 85. The “Plant response rating, Johnsongrass” value ([4]; Postemergence, 16 g ai/ha) was 20, the “Plant response rating, Johnsongrass” value ([4]; Postemergence, 31 g ai/ha) was 40 and the “Plant response rating, Johnsongrass” value ([4]; Postemergence, 62 g ai/ha) was 50. The “Plant response rating, Johnsongrass” value ([4]; Postemergence, 125 g ai/ha) was 60, the “Plant response rating, Johnsongrass” value ([4]; Preemergence, 31 g ai/ha) was 30 and the “Plant response rating, Johnsongrass” value ([4]; Preemergence, 61 g ai/ha) was 5. The “Plant response rating, Johnsongrass” value ([4]; Preemergence, 62 g ai/ha) was 50, the “Plant response rating, Johnsongrass” value ([4]; Preemergence, 125 g ai/ha) was 70 and the “Plant response rating, Nutsedge, Yellow” value ([5]; Postemergence, 16 g ai/ha) was 10. The “Plant response rating, Nutsedge, Yellow” value ([5]; Postemergence, 31 g ai/ha) was 35, the “Plant response rating, Nutsedge, Yellow” value ([5]; Postemergence, 62 g ai/ha) was 90 and the “Plant response rating, Nutsedge, Yellow” value ([5]; Postemergence, 125 g ai/ha) was 85. For the same compound, the “Plant response rating, Nutsedge, Yellow” value ([5]; Preemergence, 31 g ai/ha) was 50, the “Plant response rating, Nutsedge, Yellow” value ([5]; Preemergence, 61 g ai/ha) was 25 and the “Plant response rating, Nutsedge, Yellow” value ([5]; Preemergence, 62 g ai/ha) was 75. The “Plant response rating, Nutsedge, Yellow” value ([5]; Preemergence, 125 g ai/ha) was 95, the “Plant response rating, Oilseed Rape” value ([6]; Postemergence, 16 g ai/ha) was 85 and the “Plant response rating, Oilseed Rape” value ([6]; Postemergence, 31 g ai/ha) was 90. The “Plant response rating, Oilseed Rape” value ([6]; Postemergence, 62 g ai/ha) was 95, the “Plant response rating, Oilseed Rape” value ([6]; Postemergence, 125 g ai/ha) was 100 and the “Plant response rating, Oilseed Rape” value ([6]; Preemergence, 31 g ai/ha) was 0. The “Plant response rating, Oilseed Rape” value ([6]; Preemergence, 61 g ai/ha) was 0, the “Plant response rating, Oilseed Rape” value ([6]; Preemergence, 62 g ai/ha) was 100 and the “Plant response rating, Oilseed Rape” value ([6]; Preemergence, 125 g ai/ha) was 100. For the same compound, the “Plant response rating, Poinsettia, Wild” value ([7]; Postemergence, 16 g ai/ha) was 25, the “Plant response rating, Poinsettia, Wild” value ([7]; Postemergence, 31 g ai/ha) was 25 and the “Plant response rating, Poinsettia, Wild” value ([7]; Postemergence, 62 g ai/ha) was 40. For the same compound, the “Plant response rating, Poinsettia, Wild” value ([7]; Postemergence, 125 g ai/ha) was 35, the “Plant response rating, Poinsettia, Wild” value ([7]; Preemergence, 31 g ai/ha) was 5 and the “Plant response rating, Poinsettia, Wild” value ([7]; Preemergence, 61 g ai/ha) was 5. For the same compound, the “Plant response rating, Poinsettia, Wild” value ([7]; Preemergence, 62 g ai/ha) was 10, the “Plant response rating, Poinsettia, Wild” value ([7]; Preemergence, 125 g ai/ha) was 35 and the “Plant response rating, Ragweed” value ([8]; Postemergence, 16 g ai/ha) was 90. The “Plant response rating, Ragweed” value ([8]; Postemergence, 31 g ai/ha) was 95, the “Plant response rating, Ragweed” value ([8]; Postemergence, 62 g ai/ha) was 100 and the “Plant response rating, Ragweed” value ([8]; Postemergence, 125 g ai/ha) was 100. The “Plant response rating, Ragweed” value ([8]; Preemergence, 31 g ai/ha) was 60, the “Plant response rating, Ragweed” value ([8]; Preemergence, 61 g ai/ha) was 60 and the “Plant response rating, Ragweed” value ([8]; Preemergence, 62 g ai/ha) was 90. For the same compound, the “Plant response rating, Ragweed” value ([8]; Preemergence, 125 g ai/ha) was 100, the “Plant response rating, Ryegrass, Italian” value ([9]; Postemergence, 16 g ai/ha) was 70 and the “Plant response rating, Ryegrass, Italian” value ([9]; Postemergence, 31 g ai/ha) was 85. The “Plant response rating, Ryegrass, Italian” value ([9]; Postemergence, 62 g ai/ha) was 95, the “Plant response rating, Ryegrass, Italian” value ([9]; Postemergence, 125 g ai/ha) was 100 and the “Plant response rating, Ryegrass, Italian” value ([9]; Preemergence, 31 g ai/ha) was 25. The “Plant response rating, Ryegrass, Italian” value ([9]; Preemergence, 61 g ai/ha) was 5, the “Plant response rating, Ryegrass, Italian” value ([9]; Preemergence, 62 g ai/ha) was 98 and the “Plant response rating, Ryegrass, Italian” value ([9]; Preemergence, 125 g ai/ha) was 90. For the same compound, the “Plant response rating, Surinam Grass” value ([10]; Postemergence, 16 g ai/ha) was 80, the “Plant response rating, Surinam Grass” value ([10]; Postemergence, 31 g ai/ha) was 85 and the “Plant response rating, Surinam Grass” value ([10]; Postemergence, 62 g ai/ha) was 95. For the same compound, the “Plant response rating, Surinam Grass” value ([10]; Postemergence, 125 g ai/ha) was 95, the “Plant response rating, Surinam Grass” value ([10]; Preemergence, 31 g ai/ha) was 90 and the “Plant response rating, Surinam Grass” value ([10]; Preemergence, 61 g ai/ha) was 75. The “Plant response rating, Surinam Grass” value ([10]; Preemergence, 62 g ai/ha) was 95, the “Plant response rating, Surinam Grass” value ([10]; Preemergence, 125 g ai/ha) was 100 and the “Plant response rating, Velvetleaf” value ([11]; Postemergence, 16 g ai/ha) was 55. For the same compound, the “Plant response rating, Velvetleaf” value ([11]; Postemergence, 31 g ai/ha) was 60, the “Plant response rating, Velvetleaf” value ([11]; Postemergence, 62 g ai/ha) was 80 and the “Plant response rating, Velvetleaf” value ([11]; Postemergence, 125 g ai/ha) was 85. The “Plant response rating, Velvetleaf” value ([11]; Preemergence, 31 g ai/ha) was 60, the “Plant response rating, Velvetleaf” value ([11]; Preemergence, 61 g ai/ha) was 10 and the “Plant response rating, Velvetleaf” value ([11]; Preemergence, 62 g ai/ha) was 90. The “Plant response rating, Velvetleaf” value ([11]; Preemergence, 125 g ai/ha) was 80, the “Plant response rating, Wheat” value ([12]; Postemergence, 16 g ai/ha) was 85 and the “Plant response rating, Wheat” value ([12]; Postemergence, 31 g ai/ha) was 90. The “Plant response rating, Wheat” value ([12]; Postemergence, 62 g ai/ha) was 90, the “Plant response rating, Wheat” value ([12]; Postemergence, 125 g ai/ha) was 95 and the “Plant response rating, Wheat” value ([12]; Preemergence, 31 g ai/ha) was 85. The “Plant response rating, Wheat” value ([12]; Preemergence, 61 g ai/ha) was 60, the “Plant response rating, Wheat” value ([12]; Preemergence, 62 g ai/ha) was 95 and the “Plant response rating, Wheat” value ([12]; Preemergence, 125 g ai/ha) was 100. The “Plant response rating, Windgrass” value ([13]; Postemergence, 16 g ai/ha) was 85, the “Plant response rating, Windgrass” value ([13]; Postemergence, 31 g ai/ha) was 85 and the “Plant response rating, Windgrass” value ([13]; Postemergence, 62 g ai/ha) was 100. For the same compound, the “Plant response rating, Windgrass” value ([13]; Postemergence, 125 g ai/ha) was 100, the “Plant response rating, Windgrass” value ([13]; Preemergence, 31 g ai/ha) was 80 and the “Plant response rating, Windgrass” value ([13]; Preemergence, 61 g ai/ha) was 0. The “Plant response rating, Windgrass” value ([13]; Preemergence, 62 g ai/ha) was 85 and the “Plant response rating, Windgrass” value ([13]; Preemergence, 125 g ai/ha) was 100.
